Counter-ions that a name gives are not always drawn. Like-named read-outs stand apart in the source and are kept apart here.

In this assay the target is PDE10 (Homo sapiens (Human), UniProt Q9Y233). The assay is described as follows: LE_PDE10A inhibition assay (scintillation proximity assay, cAMP hydrolysis). The assay is classed as biochemical. The conditions noted are these: SPA, 3H-cAMP substrate at Km 25 nM. The protocol:
LE_PDE10A Inhibition Assay:
The PDE10 inhibition assay in 384-well plates was conducted to identify substances for the inhibition of cyclic nucleotide hydrolysis by the PDE10 enzyme. […] PDE10 activity was measured using Scintillation Proximity Assay (SPA)-based methods. PDE10 catalyses the hydrolysis of the intracellular messenger adenosine […] (cAMP) to the non-cyclic adenosine 5′-monophosphate (AMP). The SPA assay was based upon the selective interaction of the tritiated product with yttrium oxide LEADseeker beads.
The assay buffer contained 25 mM HEPES pH 7.4, 2.5 mM Magnesium Chloride and 0.1% BSA. […] The reaction was terminated by adding 6 μL of 5 mg/mL of yttrium oxide LEADseeker beads. The beads were allowed to settle for 3 hours before plates were read in the LEEDSeaker for 6 minutes. The measured signal could be converted to activity relative to an […] control (100%). IC50 values were calculated by using in-house data software and IC50 values were generated by nonlinear regression analysis. (Bristol-Myers Squibb Company, Wallingford, Conn.).
(In a scintillation proximity assay essentially only radioactivity close to the scintillant gives light.)

Chain of PDE10 (Q9Y233 whole entry): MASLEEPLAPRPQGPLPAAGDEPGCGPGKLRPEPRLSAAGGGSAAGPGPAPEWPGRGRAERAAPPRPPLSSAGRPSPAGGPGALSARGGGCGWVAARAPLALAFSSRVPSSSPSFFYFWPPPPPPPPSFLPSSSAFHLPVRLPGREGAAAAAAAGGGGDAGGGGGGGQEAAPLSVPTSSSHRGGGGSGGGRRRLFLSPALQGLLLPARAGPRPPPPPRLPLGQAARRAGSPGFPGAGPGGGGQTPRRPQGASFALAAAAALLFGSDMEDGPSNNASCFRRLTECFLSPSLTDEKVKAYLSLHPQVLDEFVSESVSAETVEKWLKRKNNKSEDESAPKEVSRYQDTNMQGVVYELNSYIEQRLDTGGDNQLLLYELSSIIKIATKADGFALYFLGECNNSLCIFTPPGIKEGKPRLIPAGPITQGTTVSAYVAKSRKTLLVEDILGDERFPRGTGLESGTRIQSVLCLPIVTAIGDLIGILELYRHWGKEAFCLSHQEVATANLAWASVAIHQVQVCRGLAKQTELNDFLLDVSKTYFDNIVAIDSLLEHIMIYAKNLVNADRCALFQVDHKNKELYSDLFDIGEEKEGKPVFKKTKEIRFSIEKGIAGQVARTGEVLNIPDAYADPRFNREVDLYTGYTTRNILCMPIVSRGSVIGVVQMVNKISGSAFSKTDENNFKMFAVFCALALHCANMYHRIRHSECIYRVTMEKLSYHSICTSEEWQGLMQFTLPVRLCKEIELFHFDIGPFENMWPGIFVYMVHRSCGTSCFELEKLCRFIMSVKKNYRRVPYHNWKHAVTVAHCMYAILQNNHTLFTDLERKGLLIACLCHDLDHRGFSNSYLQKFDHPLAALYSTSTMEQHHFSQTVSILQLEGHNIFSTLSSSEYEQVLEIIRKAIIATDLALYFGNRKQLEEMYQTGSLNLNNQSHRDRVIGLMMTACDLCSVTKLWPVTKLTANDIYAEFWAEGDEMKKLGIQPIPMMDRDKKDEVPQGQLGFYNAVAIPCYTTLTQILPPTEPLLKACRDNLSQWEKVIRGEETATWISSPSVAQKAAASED

In the case of `Cc1ncc(C)n2nc(-c3ccn4cc(-c5ccccc5)nc4c3)nc12` [Example 1, 5,8-dimethyl-2-(2-phenylimidazo[1,2-a]pyridin-7-yl)-[1,2,4]triazolo[1,5-a]pyrazine], under “read-out: PDE10 IC50”, the IC50 worked out at 0.1 nM.
With `Cc1ncc(C)n2nc(-c3ccn4cc(-c5ccc(Cl)cc5)nc4c3)nc12` [Example 6, 2-(2-(4-chlorophenyl)imidazo[1,2-a]pyridin-7-yl)-5,8-dimethyl-[1,2,4]triazolo[1,5-a]pyrazine], the IC50 (read-out: PDE10 IC50 (Range)) was in the range of 1 to 100 nM.
In the case of `Cc1ccc(-c2cn3ccc(-c4nc5c(C)ncc(C)n5n4)cc3n2)c(C)c1` [Example 7, 2-(2-(2,4-dimethylphenyl)imidazo[1,2-a]pyridin-7-yl)-5,8-dimethyl-[1,2,4]triazolo[1,5-a]pyrazine], the concentration for half-maximal inhibition (IC50) by setting is: (read-out: PDE10 IC50) 11 nM; (read-out: PDE10 IC50 (Range)) 1 to 100 nM.
`Cc1ncc(C)n2nc(-c3ccn4cc(-c5ccccn5)nc4c3)nc12` [Example 14, 5,8-dimethyl-2-(2-(pyridin-2-yl)imidazo[1,2-a]pyridin-7-yl)-[1,2,4]triazolo[1,5-a]pyrazine]: the IC50 (read-out: PDE10 IC50) was found to be 0.16 nM.
On to `Cc1ncc(C)n2nc(-c3ccn4cc(-c5ccc(C#N)cc5)nc4c3)nc12` [Example 16, 4-(7-(5,8-dimethyl-[1,2,4]triazolo[1,5-a]pyrazin-2-yl)-imidazo[1,2-a]pyridin-2-yl)benzonitrile], for which, under “read-out: PDE10 IC50 (Range)”, the IC50 was 1 to 100 nM.
Regarding `Cc1ncc(C)n2nc(-c3cc4nc(-c5ccccc5)cn4cc3N3CCCC3)nc12` [Example 17, 5,8-dimethyl-2-(2-phenyl-6-(pyrrolidin-1-yl)imidazo[1,2-a]pyridin-7-yl)-[1,2,4]triazolo[1,5-a]pyrazine], the IC50 was 3.5 nM (read-out: PDE10 IC50) and 1 to 100 nM (read-out: PDE10 IC50 (Range)).
Take `Cc1nccn2nc(-c3ccn4cc(-c5ccccc5)nc4c3)nc12` [Example 19, 8-methyl-2-(2-phenylimidazo[1,2-a]pyridin-7-yl)-1,2,41-triazolo[1,5-a]pyrazine, 2 HCl]: where the note is “read-out: PDE10 IC50 (Range)”, the IC50 lay within 1 to 100 nM.
In the case of `Cc1nccn2nc(-c3ccn4cc(-c5ccccn5)nc4c3)nc12` [Example 20, 8-methyl-2-(2-(pyridin-2-yl)imidazo[1,2-a]pyridin-7-yl)-[1,2,4]triazolo[1,5-a]pyrazine, 2 HCl], the IC50 (read-out: PDE10 IC50 (Range)) lay in the range of 1 to 100 nM.
For the compound `Cc1ncc(C)n2nc(-c3ccn4cc(C5CC5)nc4c3)nc12` [Example 21, 2-(2-cyclopropylimidazo[1,2-a]pyridin-7-yl)-5,8-dimethyl-[1,2,4]triazolo[1,5-a]pyrazine], the half-maximal inhibitory concentration (IC50) runs as follows: (read-out: PDE10 IC50) 26 nM; (read-out: PDE10 IC50 (Range)) 1 to 100 nM.
As to `Cc1ncc(C)n2nc(-c3ccn4cc(-c5cnccn5)nc4c3)nc12` [Example 22, 5,8-dimethyl-2-(2-(pyrazin-2-yl)imidazo[1,2-a]pyridin-7-yl)-[1,2,4]triazolo[1,5-a]pyrazine], the IC50 (read-out: PDE10 IC50 (Range)) lay in the range of 1 to 100 nM.
For `Cc1nccn2nc(-c3ccn4cc(-c5cccc(Br)c5)nc4c3)nc12` [Example 23, 2-(2-(3-bromophenyl)imidazo[1,2-a]pyridin-7-yl)-8-methyl-[1,2,4]triazolo[1,5-a]pyrazine], the half-inhibitory concentration (IC50) (read-out: PDE10 IC50 (Range)) was 1 to 100 nM.
Same read-out and setting: for `Cc1nccn2nc(-c3ccn4cc(-c5cccc(C6CC6)c5)nc4c3)nc12` [Example 24, 2-(2-(3-cyclopropylphenyl)imidazo[1,2-a]pyridin-7-yl)-8-methyl-[1,2,4]triazolo[1,5-a]pyrazine] the value was 1 to 100 nM.
On to `Cc1ncc(C)n2nc(-c3ccn4cc(-c5cccc(C6CC6)c5)nc4c3)nc12` [Example 26, 2-(2-(3-cyclopropylphenyl)imidazo[1,2-a]pyridin-7-yl)-5,8-dimethyl-1,2,41-triazolo[1,5-a]pyrazine], for which the IC50 (read-out: PDE10 IC50) stood at 0.33 nM.
Consider `Cc1ncc(C)n2nc(-c3ccn4cc(-c5cccc(N6CC[C@H](F)C6)c5)nc4c3)nc12` [Example 28, (S)-2-(2-(3-(3-fluoropyrrolidin-1-yl)phenyl)imidazo[1,2-a]pyridin-7-yl)-5,8-dimethyl-[1,2,4]triazolo[1,5-a]pyrazine], for which, where the note is “read-out: PDE10 IC50”, the IC50 came to 0.16 nM.
`Cc1nccn2nc(-c3ccn4c(C)c(-c5ccccc5)nc4c3)nc12` [Example 29, 8-methyl-2-(3-methyl-2-phenylimidazo[1,2-a]pyridin-7-yl)-[1,2,4]triazolo[1,5-a]pyrazine]: the IC50 (read-out: PDE10 IC50) was 2.4 nM and the IC50 (read-out: PDE10 IC50 (Range)) was in the range of 1 to 100 nM.

As a reminder, the IC50 is the concentration at which inhibition is half-maximal.

Source of the values: US8975276B2, “Inhibitors of PDE10” (Bristol-Myers Squibb Company, priority 2011, dated 2015).
